PMC3996484, “Apoptosis Therapy in Cancer: The First Single-molecule Co-activating p53 and the Translocator Protein in Glioblastoma” (Scientific Reports, 2014)
Read-outs that look alike come from different tables or passages of the source.

Experiments:
[1] = target: T1, native human MDM2/p53 complex (Homo sapiens, UniProt Q00987); test: ELISA-based dissociation of native MDM2/p53 complex in U87MG cell lysates; format: biochemical
T1 construct: U87MG cell lysates, containing the native MDM2/p53 complex; endogenous in cells; host or cells: U87MG human glioblastoma cells
T1 sequence (Q00987 whole entry, one chain of several): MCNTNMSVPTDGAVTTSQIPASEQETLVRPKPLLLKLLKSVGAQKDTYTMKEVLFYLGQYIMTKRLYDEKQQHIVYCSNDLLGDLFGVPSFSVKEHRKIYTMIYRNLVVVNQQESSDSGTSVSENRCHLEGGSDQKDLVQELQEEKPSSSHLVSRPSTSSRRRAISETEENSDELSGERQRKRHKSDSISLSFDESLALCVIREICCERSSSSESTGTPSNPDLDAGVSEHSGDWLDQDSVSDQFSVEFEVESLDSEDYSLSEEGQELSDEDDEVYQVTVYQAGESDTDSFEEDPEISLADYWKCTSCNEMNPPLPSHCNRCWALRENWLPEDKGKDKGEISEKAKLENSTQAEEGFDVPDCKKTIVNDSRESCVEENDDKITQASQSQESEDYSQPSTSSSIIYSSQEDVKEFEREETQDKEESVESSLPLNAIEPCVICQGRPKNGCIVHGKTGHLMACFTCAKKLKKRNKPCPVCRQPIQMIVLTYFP
Method: After extensive washes, levels of the MDM2/p53 complex were quantified using an antibody specific for p53, and subsequently an HRP-conjugated antibody and a TMB substrate kit. (C), (D) U87MG cell lysates, containing the native MDM2/p53 complex, were pre-incubated with DMSO (control) or different concentrations of the indicated compounds. Then, lysates were captured on wells pre-coated with MDM2 antibody. After extensive washes, levels of the MDM2/p53 complex were quantified using an antibody specific for p53, and subsequently an HRP-conjugated antibody and a TMB substrate kit. Blank wells were obtained in the absence of p53 antibody. Data are expressed as absorbance at 450 nm minus blank values (A), (B), or as % of control set to 100% (C), (D), and represent the mean ± SEM of at least three independent experiments.
To test the ability of new compound to dissociate the native MDM2/p53 complex, a quantitative sandwich immune-enzymatic assay, on crude cell lysates obtained from U87 MG cells was developed. […] The TMB substrate kit (Thermo Fisher Scientific) allowed a colorimetric quantification of the MDM2/p53 complex. […] Absorbance's values at 450 nm were measured, background subtracted and sigmoid dose-response curves were generated using Graph Pad Prism 4 software, from which IC50 values of MDM2/p53 complex were derived.

U87MG cells [2] = test: Annexin V and 7-AAD staining (apoptosis); format: cell-based, human
Method: Dual staining with Annexin V coniugated to fluorescein-isothiocyanate (FITC) and 7-amino-actinomysin (7-AAD) was performed using the commercially available kit (Muse Annexin V and Dead Cell Kit; Merck KGaA, Darmstadt, Germany). […] Both floating and adherent cells were collected, centrifuged at 300 × g for 5 minutes and suspended in cell culture medium. Then, a 100 μl aliquot of cell suspension (about 5 × 10^4 cell/ml) was added to 100 μl of fluorescent reagent and incubated for 10 minutes at room temperature. After incubation, the percentages of living, apoptotic and dead cells were acquired and analyzed by Muse™ Cell Analyzer in accordance to the manufacture's guidelines. In cells undergoing apoptosis, annexin V binds to phosphatidylserine, which translocates to the outer leaflet of the cytoplasmatic membrane. Double staining is used to distinguish between viable, early apoptotic, and necrotic or late apoptotic cells. Annexin V:FITC […] cells were identified as early apoptotic. Cells which were Annexin V-FITC positive and 7-AAD positive were identified as cells in late apoptosis or necrotic.

U87MG cells [3] = test: Cell viability, Trypan blue exclusion assay; format: cell-based, human
Method: Each experiment was performed in duplicate. […] Each experiment was performed in duplicate.
The effects of compound treatment on U87MG cell viability were evaluated by Trypan blue exclusion assays. Briefly harvested cells were mixed with an equal volume of 0.4% trypan blue dye. For quantization of cell viability, blue and bright cells were counted, and viability was calculated as the percentage of live (bright) cells versus control set to 100%. U87MG cells were treated with different concentrations (10 nM–10 μM) of each compound and after 24 h of incubation viable cells were counted.

U87MG cells [4] = test: Δψm dissipation in intact cells (JC-1, mitochondria isolated after cell treatment); details: for Δψm dissipation: 10 μM, 24 h of cell treatment; for Δψm dissipation vs control: intact cells, 5 μM, 24 h
TSPO = target: T2, TSPO (Rattus norvegicus, UniProt P16257); test: Competitive [3H]PK11195 radioligand binding assay; details: membrane homogenates from kidney, 0.6 nM [3H]PK11195; read-out: Ki, displacement of specific [3H]PK11195 binding
T2 construct: membranes homogenates obtained from kidney (20 μg of proteins) were incubated with 0.6 nM; from tissue; host or cells: kidney (crude mitochondrial membranes)
Method: (§1) Figure 3 New synthesized compounds bind to TSPO and induce Δψm collapse. (A) [^3H]PK11195 radioligand binding: membranes homogenates obtained from kidney (20 μg of proteins) were incubated with 0.6 nM [^3H]PK11195 and different compounds concentration. Reaching equilibrium, samples were filtered and bound radioactivity was counted. […] (B) Evaluation of Δψm in isolated mitochondria: Mitochondria (5 μg of proteins) were treated with compound 1 (5 μM), or compound 7 (5 μM), or DMSO (control) for 15 min. […] Each experiment was performed in duplicate.
Binding studies were performed as previously described. Briefly, crude mitochondrial membranes, in 50 mM Tris-HCl pH 7.4 buffer, were incubated with 0.6 nM [^3H]PK 11195 in the presence of new synthesized compounds (0.1 nM–10 μM) in a final volume of 0.5 ml for 90 min at 4°C. Incubations were terminated by rapid filtration through GF/C glass fiber filters and washed three times with 4 ml of cold buffer. The radioactivity was measured by liquid scintillation counter. Non-specific binding was estimated in the presence of unlabeled 1 μM PK 11195. IC50 value was determined using Graph-Pad Prism computer program (Graph Pad Software, version 5.0; San Diego, CA).

[5] = test system: mitochondria isolated from the human GBM cell line U87MG; test: Δψm dissipation in isolated mitochondria (JC-1); format: biochemical; details: isolated treated mitochondria, 5 μM, 15 min
Method: as §1
Several evidences have shown that TSPO is a constituent of the MPTP, taking therefore part in dissipation of Δψm that occurs after MPTP opening, as well as in the release of proapoptotic inter-membrane proteins and in the induction of apoptosis. To assess whether compounds 1 and 7 could modulate MPT-pore opening through their selective binding to TSPO, Δψm was measured in mitochondria isolated from the human GBM cell line U87MG.

[6] = test system: p53 protein levels in U87MG cells; test: p53 protein levels by Western blot; format: cell-based, human; details: 8 h incubation
Method: Figure 6 New synthesized compounds induce p53 protein accumulation by dissociation of MDM2/p53 complex and stimulate transcription of p53 target genes in U87MG cells. […] Lysates were subjected to Western blot analysis using antibody to p53 (FL-393; Santa Cruz Biotechnology). […] The MDM2/p53 complex and the relative input of the proteins were detected by immunoblot. One representative Western blot is presented (left panel). […] (D) Relative mRNA quantification of p53 target genes: The relative mRNA quantification of p53 target genes (p21 and MDM2) was performed by real-time RT-PCR as describe in Methods. […] Each experiment was performed in duplicate.
The western blot analysis for the evaluation of p53 protein levels was performed as previously described. […] 30 μg of each sample was then resolved by SDS-PAGE (8.5%), transferred to PVDF membranes and probed overnight at 4°C with primary antibody anti-p53 (FL-393; Santa Cruz Biotechnology; 1:500). The primary antibody was detected using anti-rabbit IgG light chains conjugated to peroxidase (diluted 1:10.000). The peroxidase was detected using a chemioluminescent substrate (ECL, Perkin Elmer). Densitometric analysis of immunoreactive bands was performed using Image J Software.

[7] = test system: p53 target genes (MDM2, p21, PUMA) in U87MG cells; test: Relative mRNA quantification of p53 target genes (real-time RT-PCR); format: cell-based, human; details: for mRNA levels of p53 target genes (MDM2 and p21): 5 μM
Method: The assessment of p53 target gene mRNA levels was performed by real-time reverse transcription polymerase chain reaction (real-time RT-PCR)[16]. In brief, total RNA was extracted from control cells as well as from cells treated with compounds (5 μM) for different hours, using Rneasy® Mini Kit (Qiagen, Hilden, Germany) according to manufacturer's instructions. Purity of the RNA samples was determined by measuring the absorbance at 260:280 nm. cDNA synthesis was performed with 500 ng of RNA using i-Script cDNA synthesis kit (BioRad, Hercules, USA) following manufacturer's instructions. […] RT-PCR reactions consisted of 25 μL Fluocycle® II SYBR® (Euroclone, Milano, Italy), 1.5 μL of both 10 μM forward and reverse primers, 3 μL cDNA, and 19 μL of H2O. All reactions were performed for 40 cycles using 55°C as annealing temperature. The p53 target gene mRNA levels for each sample were normalized against β-actin mRNA levels, and relative expression was calculated by using Ct value. PCR specificity was verified by both the melting curve analysis and gel electrophoresis.

U87MG cells [8] = test: Senescence marker SA-β-Gal; format: cell-based, human; details: 5 μM, 24 h
Source text: The senescence marker SA-β-Gal was detected as previously described[16] and cells were then washed in PBS (1×) and photographed at 100× magnification. Images of random light microscopic fields were captured (5 fields per well), and both blue and total cells were counted using ImageJ (ImageJ Software, version 1.41; USA).

[9] = Precipitation in NMR sample; format: physicochemical; details: added from DMSO stock, 20 mM TrisHCl, 150 mM KCl, pH 7.4
Method: NMR spectra were acquired at 25°C on a Varian Unity INOVA 700 MHz spectrometer equipped with a cryoprobe. NMR samples contained 0.1 mM of proteins in 20 mM TrisHCl, 150 mM KCl, pH 7.4, 5 mM β-mercaptoethanol, 0.02% NaN3. Water suppression was carried out by gradient echo[39]. NMR data were processed using the Bruker program BioSpin 3.0. For NMR ligand binding experiments, 300 μL of the protein sample containing 10% D2O, at a concentration of about 0.1 mM, and a 10 mM stock solution of compounds 7 and 1 in DMSO-d6 were used. The formal final molar ratio protein:inhibitor was 1:2.

[10] = target: T3, recombinant human MDM2/p53 complex (Homo sapiens, UniProt Q00987); test: NMR dissociation (AIDA) of recombinant MDM2/p53 complex; format: binding; details: 0.2 mM formal final concentration, complex 0.1 mM
T3 construct: N-terminal region of MDM2 (residues 1–118); His-tag; made in house; host or cells: Escherichia coli BL21(DE3) RIL
T3 sequence (Q00987 1-118, one chain of several): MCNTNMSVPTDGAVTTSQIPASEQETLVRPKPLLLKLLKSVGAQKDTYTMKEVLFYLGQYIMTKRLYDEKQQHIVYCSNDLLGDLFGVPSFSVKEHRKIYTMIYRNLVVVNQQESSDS
Source text: The method, named AIDA (for Antagonist Induced Dissociation Assay[26][27]), can work with complex made by a large protein fragment (larger than 30 kDa) and a small reporter protein (less than 20 kDa). AIDA makes use of two-dimensional^15N-HSQC spectra, however, in the presence of flexible protein residues, 1D proton NMR spectra may be sufficient for monitoring the states of the complex upon addition of ligands. Since the N-terminal domain of p53 is highly flexible, MDM2/p53 complex is suitable for 1D proton NMR application[26][28][29]. Particularly, the signals from ^NH^ε side chains of W23 and W53 are sharp in the free p53 1D proton spectrum. After the complex formation, W23 signal disappears, since W23 comprises the primary binding site for MDM2. In fact, residues 17–26 of p53 participate in well-defined structures of large MDM2/p53 complexes. In contrast, W53 is still not structured when p53 binds MDM2[26].
NMR spectra were acquired at 25°C on a Varian Unity INOVA 700 MHz spectrometer equipped with a cryoprobe. […] Water suppression was carried out by gradient echo[39]. NMR data were processed using the Bruker program BioSpin 3.0.

Structure (SMILES) | IC50 [1] | Δψm dissipation (U87MG cells [4]) | Ki (TSPO) | Δψm dissipation vs control [5] | concentration at which p53 accumulation became significant [6] | mRNA levels of p53 target genes (MDM2 and p21) [7] | Δψm dissipation vs control (U87MG cells [4]) | other results
O=C1[C@@H]2CS[C@@]3(C(=O)Nc4ccccc43)N2C(=O)N1Cc1ccc(Cl)cc1 [ISA27, reference compound] | 122 ± 14.5 nM |  |  |  |  |  |  | 
COc1ccc(C2=N[C@@H](c3ccc(Cl)cc3)[C@@H](c3ccc(Cl)cc3)N2C(=O)N2CCNC(=O)C2)c(OC(C)C)c1 [Nutlin-3, reference compound] |  | only a marginal effect |  |  |  |  |  | induction of specific apoptotic parameters (Annexin V, PUMA mRNA) (U87MG cells [2]; 10 μM, 24 h): did not show any induction; effect on U87MG cell viability (U87MG cells [3]; 24 h): dose-dependent reduction
CCC(C)N(C)C(=O)c1cc2ccccc2c(-c2ccccc2Cl)n1 (stereo not shown) [PK11195] |  | significant Δψm dissipation |  |  |  |  |  | inhibition of cell viability vs control (U87MG cells [3]; 100 μM, 24 h, maximal effect): 52.0 ± 2.3%; concentration from which inhibition of cell viability is significant (U87MG cells [3]; 24 h): 10 µM
CCOC(=O)[C@@H](Cc1ccccc1)NC(=O)[C@H](CC(C)C)NC(=O)C(=O)c1c(-c2ccccc2)[nH]c2ccccc12 [compound 1, (2-phenylindol-3-yl)glyoxyl-L-leucine-L-phenylalanine ethylester] |  |  | 438 ± 35 nM | 20.0 ± 1.8% | 5 µM | increase significantly | 47.0 ± 3.4% | increase of PUMA mRNA level ([7]; 16–24 h): approximately 4 fold; activity of the senescence marker β-galactosidase (U87MG cells [8]): no activity; phosphatidylserine externalization (early and late apoptosis) (U87MG cells [2]; 5 μM): significant phosphatidylserine externalization; IC50 (U87MG cells [3]; Homo sapiens, U-87 MG, 24 h, read-out: IC50, U87MG cell survival): 2500 ± 400 nM; actual concentration in MDM2/p53 NMR sample (sample precipitation) [9]: lower than 0.2 mM
CC(C)C[C@H](NC(=O)C(=O)c1c(-c2ccccc2)[nH]c2ccccc12)C(=O)N[C@H](Cc1ccccc1)C(=O)O [compound 7, (2-phenylindol-3-yl)glyoxyl-L-leucine-L-phenylalanine] | 202 ± 21.2 nM |  | 759 ± 56 nM | 43 ± 3.1% | 5 µM | increase significantly | 60.1 ± 3.2% | p53 release from MDM2/p53 complex (W23 peak appears) [10]: complete p53 release; IC50 (U87MG cells [3]; Homo sapiens, U-87 MG, 24 h; read-out: IC50, U87MG cell survival): 2900 ± 500 nM
